Experimental data taken from ChEMBL document CHEMBL1201862, “PubChem BioAssay data set” (2004).
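Briefly, cells in 96-well plates were exposed to five compound concentrations for 48 h, and endpoints were estimated by linear interpolation. GI50 is the concentration that inhibits growth by half.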 Activity calls are given as the source filed them. No stated cut-off is given here; in the data, active = GI50 up to about 1.1 µM and inactive = higher.

Experiments:
Assay in all cases: NCI-60 cell line screen, 48 h
CCRF-CEM = tested on: CCRF-CEM
LOX IMVI = tested on: LOX IMVI
CAKI-1 = tested on: CAKI-1
PC-3 = tested on: PC-3
COLO 205 = tested on: COLO 205
SK-MEL-28 = tested on: SK-MEL-28
SNB-19 = tested on: SNB-19
HCC 2998 = tested on: HCC 2998
Hs-578T = tested on: Hs-578T
MDA-N = tested on: MDA-N
HOP-62 = tested on: HOP-62
M14 = tested on: M14
NCI-H23 = tested on: NCI-H23
NCI-H226 = tested on: NCI-H226
KM12 = tested on: KM12
NCI/ADR-RES = tested on: NCI/ADR-RES
RPMI-8226 = tested on: RPMI-8226
UO-31 = tested on: UO-31
SF-295 = tested on: SF-295
SK-MEL-5 = tested on: SK-MEL-5

Measured: GI50

COc1cc(/C=C/C(=O)O)ccc1O [FERULATE]
inactive: CCRF-CEM > 100 µM | LOX IMVI > 100 µM | CAKI-1 > 100 µM | PC-3 > 100 µM | COLO 205 > 100 µM | SK-MEL-28 > 100 µM | SNB-19 > 100 µM | HCC 2998 > 100 µM | Hs-578T > 100 µM | MDA-N > 100 µM | HOP-62 > 100 µM | M14 > 100 µM | NCI-H23 > 100 µM | NCI-H226 > 100 µM | KM12 > 100 µM | NCI/ADR-RES > 100 µM | RPMI-8226 > 100 µM | UO-31 > 100 µM | SF-295 > 100 µM | SK-MEL-5 > 100 µM

O=C1OC(=O)C2CCCC3CCCC1C32 (stereo not given)
inactive: CCRF-CEM > 100 µM | LOX IMVI > 100 µM | CAKI-1 > 100 µM | PC-3 > 100 µM | COLO 205 > 100 µM | SK-MEL-28 > 100 µM | SNB-19 > 100 µM | HCC 2998 > 100 µM | Hs-578T > 100 µM | MDA-N > 100 µM | HOP-62 > 100 µM | M14 > 100 µM | NCI-H23 > 100 µM | NCI-H226 > 100 µM | KM12 > 100 µM | NCI/ADR-RES > 100 µM | RPMI-8226 > 100 µM | UO-31 > 100 µM | SF-295 > 100 µM | SK-MEL-5 > 100 µM

COc1ccc(OC)c2c1C(=O)C(O)=C(Cl)C2=O
inactive: CCRF-CEM > 100 µM | LOX IMVI > 100 µM | CAKI-1 > 100 µM | PC-3 > 100 µM | COLO 205 > 100 µM | SK-MEL-28 > 100 µM | SNB-19 > 100 µM | HCC 2998 > 100 µM | Hs-578T > 100 µM | MDA-N > 100 µM | HOP-62 > 100 µM | M14 > 100 µM | NCI-H23 > 100 µM | NCI-H226 > 100 µM | KM12 > 100 µM | NCI/ADR-RES > 100 µM | RPMI-8226 > 100 µM | UO-31 > 100 µM | SF-295 > 100 µM | SK-MEL-5 > 100 µM

CC1C(=O)O[B-]2(c3ccccc3)Oc3ccccc3C=[N+]12 (stereo not given)
inactive: CCRF-CEM > 100 µM | LOX IMVI > 100 µM | CAKI-1 > 100 µM | PC-3 > 100 µM | COLO 205 > 100 µM | SK-MEL-28 > 100 µM | SNB-19 > 100 µM | HCC 2998 > 100 µM | Hs-578T > 100 µM | MDA-N > 100 µM | HOP-62 > 100 µM | M14 > 100 µM | NCI-H23 > 100 µM | NCI-H226 > 100 µM | KM12 > 100 µM | NCI/ADR-RES > 100 µM | RPMI-8226 > 100 µM | UO-31 > 100 µM | SF-295 > 100 µM | SK-MEL-5 > 100 µM

CC1(O)CCC(C(C)(C)O)CC1 (stereo not given) [TERPIN]
inactive: CCRF-CEM > 100 µM | LOX IMVI > 100 µM | CAKI-1 > 100 µM | PC-3 > 100 µM | COLO 205 > 100 µM | SK-MEL-28 > 100 µM | SNB-19 > 100 µM | HCC 2998 > 100 µM | Hs-578T > 100 µM | MDA-N > 100 µM | HOP-62 > 100 µM | M14 > 100 µM | NCI-H23 > 100 µM | NCI-H226 > 100 µM | KM12 > 100 µM | NCI/ADR-RES > 100 µM | RPMI-8226 > 100 µM | UO-31 > 100 µM | SF-295 > 100 µM | SK-MEL-5 > 100 µM

N#Cc1c(O)c(/C=N/c2ccc(Cl)cc2)c(=O)n2c1[nH]c1ccccc12
inactive: CCRF-CEM > 100 µM | LOX IMVI > 100 µM | CAKI-1 > 100 µM | PC-3 > 100 µM | COLO 205 > 100 µM | SK-MEL-28 > 100 µM | SNB-19 > 100 µM | HCC 2998 > 100 µM | Hs-578T > 100 µM | MDA-N > 100 µM | HOP-62 > 100 µM | M14 > 100 µM | NCI-H23 > 100 µM | NCI-H226 > 100 µM | KM12 > 100 µM | NCI/ADR-RES > 100 µM | RPMI-8226 > 100 µM | UO-31 > 100 µM | SF-295 > 100 µM | SK-MEL-5 > 100 µM

O=C(O)CC1(C(=O)O)CCCCC1
inactive: CCRF-CEM > 100 µM | LOX IMVI > 100 µM | CAKI-1 > 100 µM | PC-3 > 100 µM | COLO 205 > 100 µM | SK-MEL-28 > 100 µM | SNB-19 > 100 µM | HCC 2998 > 100 µM | Hs-578T > 100 µM | MDA-N > 100 µM | HOP-62 > 100 µM | M14 > 100 µM | NCI-H23 > 100 µM | NCI-H226 > 100 µM | KM12 > 100 µM | NCI/ADR-RES > 100 µM | RPMI-8226 > 100 µM | UO-31 > 100 µM | SF-295 > 100 µM | SK-MEL-5 > 100 µM

CN(/N=C/c1ccc(OCc2cccc(COc3ccc(C=O)cc3)n2)cc1)c1cnn(-c2ccc(Cl)cc2Cl)c(=O)c1Cl
inactive: CCRF-CEM > 100 µM | LOX IMVI 88.1 µM | CAKI-1 > 100 µM | PC-3 > 100 µM | COLO 205 > 100 µM | SK-MEL-28 > 100 µM | SNB-19 50.7 µM | HCC 2998 > 100 µM | Hs-578T > 100 µM | MDA-N > 100 µM | HOP-62 17.7 µM | M14 > 100 µM | NCI-H23 > 100 µM | NCI-H226 > 100 µM | KM12 > 100 µM | NCI/ADR-RES 21.2 µM | RPMI-8226 53.1 µM | UO-31 > 100 µM | SF-295 20.2 µM | SK-MEL-5 > 100 µM

CN(C)CCCNC(=O)CCNC(=O)c1cc(NC(=O)c2cc(NC(=O)c3cc(NC(=O)c4nccn4C)cn3C)cn2C)cn1C
inactive: CCRF-CEM > 46.8 µM | LOX IMVI 21.9 µM | CAKI-1 > 100 µM | PC-3 > 100 µM | COLO 205 20 µM | SK-MEL-28 > 100 µM | SNB-19 29.6 µM | HCC 2998 > 100 µM | Hs-578T > 100 µM | MDA-N > 100 µM | HOP-62 > 100 µM | M14 > 100 µM | NCI-H23 > 100 µM | NCI-H226 > 100 µM | KM12 > 100 µM | NCI/ADR-RES > 100 µM | RPMI-8226 > 100 µM | UO-31 > 100 µM | SF-295 > 100 µM | SK-MEL-5 > 100 µM

CC(=O)NC1=C(OS(=O)(=O)c2ccc(C)cc2)CN(C)C1=O
inactive: CCRF-CEM 1.77 µM | LOX IMVI 4.6 µM | CAKI-1 3.86 µM | PC-3 2.84 µM | COLO 205 5.75 µM | SK-MEL-28 10.3 µM | SNB-19 3.43 µM | HCC 2998 2.43 µM | Hs-578T 4.03 µM | MDA-N 4.56 µM | HOP-62 2.88 µM | M14 5.04 µM | NCI-H23 3.72 µM | NCI-H226 8.73 µM | KM12 3.92 µM | NCI/ADR-RES 3.91 µM | RPMI-8226 1.59 µM | UO-31 3.44 µM | SF-295 4.1 µM | SK-MEL-5 4.11 µM
